Tests used:
oxoprolinase [1] = target: T1, oxoprolinase (Homo sapiens, UniProt O14841); experiment: 13C-OTC breath test, metabolic rate index with and without acetaminophen; assay type: in vivo; conditions: for Metabolic Rate Index, ACE+: 2 gm acetaminophen one hour prior to OTC; for Metabolic Rate Index, BASAL: oral 13C-OTC 1.5 mg/kg alone
T1 construct: Seven healthy volunteers (ages 22-39) each participated in two studies; from tissue; host or cells: whole body of human volunteers (oral dose, breath test)
T1 sequence (O14841 1-1288): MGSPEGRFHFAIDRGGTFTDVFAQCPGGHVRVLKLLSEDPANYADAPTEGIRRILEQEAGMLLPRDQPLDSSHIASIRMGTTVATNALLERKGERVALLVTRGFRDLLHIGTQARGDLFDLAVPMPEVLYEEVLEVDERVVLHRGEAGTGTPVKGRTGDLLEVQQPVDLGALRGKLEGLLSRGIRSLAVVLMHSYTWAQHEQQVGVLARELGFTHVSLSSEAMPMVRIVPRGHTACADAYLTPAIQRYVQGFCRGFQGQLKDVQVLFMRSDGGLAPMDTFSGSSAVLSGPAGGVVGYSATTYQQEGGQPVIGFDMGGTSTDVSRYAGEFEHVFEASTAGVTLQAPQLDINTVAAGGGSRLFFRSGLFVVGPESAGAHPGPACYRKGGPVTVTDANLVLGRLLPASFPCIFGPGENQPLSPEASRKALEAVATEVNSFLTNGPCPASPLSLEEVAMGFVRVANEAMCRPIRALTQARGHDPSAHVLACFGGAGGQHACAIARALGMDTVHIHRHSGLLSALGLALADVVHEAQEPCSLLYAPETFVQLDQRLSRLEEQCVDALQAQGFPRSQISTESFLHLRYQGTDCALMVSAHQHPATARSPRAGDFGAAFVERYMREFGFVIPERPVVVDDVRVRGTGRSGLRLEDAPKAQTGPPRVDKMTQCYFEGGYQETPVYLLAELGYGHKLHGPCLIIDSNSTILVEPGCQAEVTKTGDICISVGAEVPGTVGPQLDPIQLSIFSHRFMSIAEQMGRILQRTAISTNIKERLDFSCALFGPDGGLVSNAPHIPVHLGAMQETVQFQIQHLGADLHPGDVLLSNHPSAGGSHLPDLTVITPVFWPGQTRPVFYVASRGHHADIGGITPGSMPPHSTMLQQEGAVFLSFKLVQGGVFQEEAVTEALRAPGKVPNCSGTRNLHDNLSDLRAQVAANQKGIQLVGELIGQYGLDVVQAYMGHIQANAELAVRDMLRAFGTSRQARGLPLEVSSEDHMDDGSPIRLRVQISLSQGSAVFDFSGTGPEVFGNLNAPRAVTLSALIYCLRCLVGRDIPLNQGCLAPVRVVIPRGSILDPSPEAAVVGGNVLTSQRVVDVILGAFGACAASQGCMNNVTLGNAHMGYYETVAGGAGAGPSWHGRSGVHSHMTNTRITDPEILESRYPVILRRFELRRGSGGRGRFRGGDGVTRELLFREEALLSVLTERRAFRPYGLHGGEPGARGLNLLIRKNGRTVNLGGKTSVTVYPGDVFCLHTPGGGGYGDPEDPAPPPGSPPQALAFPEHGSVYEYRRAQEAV
Procedure: Seven healthy volunteers (ages 22-39) each participated in two studies. After three days on a weight maintaining diet, each participant was given a drink containing ^13C-labelled OTC (1.5 mg/kg), following which blood and expired breath were sampled frequently. In the first test, each participant received the OTC alone. In the second study at least one week later, each participant ingested 2 gm acetaminophen one hour prior to the OTC drink. Expired breath samples were analyzed for the ^13C enrichment (APE) of CO2, and expressed as isotopic enrichment in atom per cent excess (APE×1000) versus time, in the usual manner and in accordance with the general protocol described in Example I. A second panel of probands (ages 53-73) were tested in a similar manner.
From the pattern of label enrichment, at least two types of kinetic processes are apparent, one is absorption, since the metaprobe was dispensed orally, and the other disposition.
Deconvolution of this model by equation transformation and coefficient matching (Wagner, 1993) afforded separate kinetic measurements for the post absorptive metabolism of OTC in the metabolic compartment, and this was expressed as a fractional catabolic rate (Lassen and Perl, 1979). Lastly, the per cent of metaprobe dose recovered in breath was computed from the cumulative integral of the ^13CO2 enrichment versus time plot multiplied by the CO2 production rate for each proband, which in these experiments were measured by indirect calorimetry (but can also be estimated from formulas that have been proven to correlate an individual's height, weight, age and gender with CO2 production). The metabolic index for OTC utilization by oxoprolinase was then computed by the simple expedient of multiplying the dose of metaprobe by the per cent recovery and then by the fractional catabolic rate.
The data from the validating trial in this Example III all corroborate the biochemical hypothesis concerning the OTC metaprobe's mode of action as an indicator of oxoprolinase activity and, therefore, its utility as a surrogate indicator for glutathione production capacity. The results, which are expressed in terms of nanomoles of OTC metabolized per kilogram body weight per minute for the basal condition (BASAL), post acetaminophen (ACE+), and the stimulatory difference between ACE+ and BASAL (STIM) are shown in Table 5.

oxoprolinase [2] = target: T2, oxoprolinase (Rattus norvegicus, UniProt P97608); conditions: enzymatic assay; cited from earlier work
T2 sequence (P97608 1-1288): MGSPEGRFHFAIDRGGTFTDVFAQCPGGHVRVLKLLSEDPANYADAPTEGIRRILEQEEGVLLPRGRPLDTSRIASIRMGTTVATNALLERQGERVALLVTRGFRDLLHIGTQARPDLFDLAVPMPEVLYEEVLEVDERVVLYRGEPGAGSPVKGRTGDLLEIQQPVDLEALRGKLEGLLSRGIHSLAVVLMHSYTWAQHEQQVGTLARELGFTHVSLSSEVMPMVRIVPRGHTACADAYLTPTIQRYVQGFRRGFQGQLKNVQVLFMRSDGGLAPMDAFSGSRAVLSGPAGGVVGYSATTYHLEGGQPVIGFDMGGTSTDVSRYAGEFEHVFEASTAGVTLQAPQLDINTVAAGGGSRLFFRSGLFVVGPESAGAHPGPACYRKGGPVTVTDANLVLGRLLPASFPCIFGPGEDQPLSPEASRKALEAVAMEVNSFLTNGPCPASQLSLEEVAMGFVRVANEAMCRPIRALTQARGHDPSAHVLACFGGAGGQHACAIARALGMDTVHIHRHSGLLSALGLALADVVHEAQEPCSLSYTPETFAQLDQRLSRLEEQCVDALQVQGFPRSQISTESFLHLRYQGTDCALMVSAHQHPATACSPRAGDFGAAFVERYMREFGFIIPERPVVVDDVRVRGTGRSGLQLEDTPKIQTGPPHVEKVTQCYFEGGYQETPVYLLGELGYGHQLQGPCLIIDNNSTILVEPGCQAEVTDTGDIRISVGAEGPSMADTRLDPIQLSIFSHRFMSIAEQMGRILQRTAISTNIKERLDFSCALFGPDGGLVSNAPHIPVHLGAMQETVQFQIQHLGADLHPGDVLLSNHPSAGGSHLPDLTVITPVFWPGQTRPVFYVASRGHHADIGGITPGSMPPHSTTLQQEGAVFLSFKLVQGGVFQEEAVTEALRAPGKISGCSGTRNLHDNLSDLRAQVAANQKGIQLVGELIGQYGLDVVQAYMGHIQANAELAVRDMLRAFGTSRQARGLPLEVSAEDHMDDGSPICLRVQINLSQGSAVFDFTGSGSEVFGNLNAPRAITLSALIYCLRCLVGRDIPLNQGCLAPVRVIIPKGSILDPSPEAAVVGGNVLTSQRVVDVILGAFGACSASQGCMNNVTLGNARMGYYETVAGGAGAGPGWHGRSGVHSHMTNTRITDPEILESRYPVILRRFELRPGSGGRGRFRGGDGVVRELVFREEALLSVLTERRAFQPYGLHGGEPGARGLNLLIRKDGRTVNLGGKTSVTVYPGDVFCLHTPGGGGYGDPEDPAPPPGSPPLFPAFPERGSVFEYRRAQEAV

[3] = target: T3, cystathionine synthase (CS) (Oryctolagus cuniculus, UniProt Q9N0V7); experiment: CS gateway enzyme breath test with homocysteine metaprobe, basal and after methionine load; conditions: n = 4
T3 sequence (Q9N0V7 1-551): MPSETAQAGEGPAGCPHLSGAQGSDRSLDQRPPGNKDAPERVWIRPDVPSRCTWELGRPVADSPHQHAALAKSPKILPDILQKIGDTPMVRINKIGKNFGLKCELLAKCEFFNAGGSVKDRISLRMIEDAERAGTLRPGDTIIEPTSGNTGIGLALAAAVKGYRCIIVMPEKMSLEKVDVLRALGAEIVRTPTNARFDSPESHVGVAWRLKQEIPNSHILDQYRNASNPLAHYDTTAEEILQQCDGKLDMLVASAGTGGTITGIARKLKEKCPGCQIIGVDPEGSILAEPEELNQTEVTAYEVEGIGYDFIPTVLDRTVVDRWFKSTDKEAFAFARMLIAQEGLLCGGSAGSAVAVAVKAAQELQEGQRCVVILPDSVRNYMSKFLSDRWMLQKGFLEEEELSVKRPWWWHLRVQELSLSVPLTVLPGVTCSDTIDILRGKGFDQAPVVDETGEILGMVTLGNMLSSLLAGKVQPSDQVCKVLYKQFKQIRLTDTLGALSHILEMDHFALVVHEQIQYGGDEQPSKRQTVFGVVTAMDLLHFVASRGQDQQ

[4] = target: T3, cystathionine synthase (CS); conditions: male, New Zealand, rabbit, in vivo, iv, 2 mg/kg

| Metabolic Rate Index, ACE+ (oxoprolinase [1]; ALL (22-73 yrs., n = 12)) [nmol/kg/min] | Metabolic Rate Index, ACE+ (oxoprolinase [1]; OLD (53-73 yrs., n = 5)) [nmol/kg/min] | Metabolic Rate Index, ACE+ (oxoprolinase [1]; YOUNG (22-39 yrs., n = 7)) [nmol/kg/min] | Metabolic Rate Index, STIM (difference between ACE+ and BASAL) (oxoprolinase [1]; ALL (22-73 yrs., n = 12)) [nmol/kg/min] | Metabolic Rate Index, STIM (difference between ACE+ and BASAL) (oxoprolinase [1]; OLD (53-73 yrs., n = 5)) [nmol/kg/min] | Metabolic Rate Index, STIM (difference between ACE+ and BASAL) (oxoprolinase [1]; YOUNG (22-39 yrs., n = 7)) [nmol/kg/min] | Metabolic Rate Index, BASAL (oxoprolinase [1]; ALL (22-73 yrs., n = 12)) [nmol/kg/min] | Metabolic Rate Index, BASAL (oxoprolinase [1]; OLD (53-73 yrs., n = 5)) [nmol/kg/min] | Metabolic Rate Index, BASAL (oxoprolinase [1]; YOUNG (22-39 yrs., n = 7)) [nmol/kg/min] | Compound | action on oxoproline hydrolysis by oxoprolinase (oxoprolinase [2]) | LI, load tolerance index (BASAL minus MET+) [3] | Metabolic Response Index (MRI), BASAL [4] |
| --- | --- | --- | --- | --- | --- | --- | --- | --- | --- | --- | --- | --- |
| 515 ± 227 | 452 ± 161 | 547 ± 269 | 208 ± 82 | 117 ± 40 | 261 ± 115 | 307 ± 108 | 335 ± 110 | 286 ± 111 | O=C(O)[C@@H]1CS[13C](=O)N1 [OTC, L-2-oxo[^13C]thiazolidine-4-carboxylic acid] | competitive inhibitor of oxoproline hydrolysis |  |  |
|  |  |  |  |  |  |  |  |  | CCOC(=O)[C@@H]1CCSC(=O)N1 [Homocysteine Metaprobe, L-2-oxo-tetrahydro-1,3-thiazine-4-carboxylic acid ethyl ester] |  | 57 +/− 24 (n = 4) MicroMol/kg/hr. | 85 +/− 14 (n = 4) MicroMol/kg/hr. |

— patent US6610270B1, “In vivo determination of metabolic function for use in therapy management” (Xanthus Life Sciences, Inc., priority 1998, dated 2003)
